Data set [1] addresses T1, beef heart mitochondrial membranes, Complex II (Bos taurus, UniProt P35720+Q3T189+Q95123).
T1 construct: from tissue; host or cells: beef heart mitochondrial membranes
As to the kind of experiment: Reduction of mitoquinone by beef heart mitochondrial membranes with succinate (Complex II). Type of data set: biochemical. The method, then: FIGS. 12A to 12D show reactions of [10-(6′-ubiquinonyl)decyltriphenylphosphonium bromide] (“mitoquinone”) and the reduced form of the compound (“mitoquinol”) with mitochondrial membranes. Beef heart mitochondrial membranes (20 μg/ml) were suspended in 50 mM sodium phosphate, pH 7.2 at 20° C. In panel A rotenone and antimycin were present and for the t=0 scan, then succinate (5 mM) was added and scans repeated at 5 minute intervals as indicated. In panel B A275 was monitored in the presence of rotenone and antimycin and then mitoquinone (50 μM) was added, followed by succinate (5 mM) and malonate (20 mM) where indicated. In Panel C rotenone, ferricytochrome c (50 μM) and malonate (20 mM) were present, A275 was monitored and mitoquinol (50 μM) and myxathiazol (10 μM) were added where indicated. In panel D A550 was monitored and the experiment in Panel C was repeated in the presence of KCN. Addition of myxathiazol inhabited this rate by about 60–70%.
To determine whether the mitochondrial respiratory chain could also oxidise or reduce the compound mitoquinone was incubated with beef heart mitochondrial membranes (FIG. 12). In panel A the spectrum of fully oxidised mitoquinone in the presence of antimycin inhibited membranes is shown (t=0; FIG. 12A). Addition of succinate led to the gradual reduction of the […] as measured by repeating the measurement every five minutes and showing that the peak at 275 nm gradually disappeared, the presence of antimycin prevented the oxidation of the quinol by mitochondrial complex III.
The reduction of mitoquinone can be followed continuously at A275 nm (FIG. 12B). […] The rate of reduction of mitoquinone was 51±9.9 nmol/min/mg protein, which compares with the rate of reduction of cytochrome c by succinate in the presence of KCN of 359 nmol/min/mg. Allowing for the 2 electrons required for mitoquinone reduction compared with 1 for cytochrome c the rate of electron flux into the mitoquinone pool is of similar order to the electron flux through the respiratory chain.

Data set [2] relates to pentane extracted beef heart mitochondria. As to the kind of experiment: Reactions with pentane-extracted beef heart mitochondria. Particulars: for restoration of NADH oxidation: pentane extracted beef heart mitochondria, NADH 125 μM, 50 μM compound. The class given is biochemical. The procedure: Pentane extracted beef heart mitochondria (100 μg protein/ml) were suspended in 50 mM sodium phosphate, pH 7.2 at 20° C. In Panel A NADH (125 μM) was added and A340 was monitored and ubiquinone-1 (UQ-1; 50 μM added where indicated. This was repeated in Panel b, except that mitoubiquinone (50 μM) was added. In Panel C pentane extracted mitochondria were incubated with mitoquinone (50 μM), A275 was monitored and succinate (5 mM) and malonate (20 mM) added where indicated. In Panel D pentane-extracted mitochondria were incubated with NADH (125 μM), ferricytochrome c (50 μM) and A550 was monitored and mitoquinone (50 μM) was added where indicated. Addition of myxathiazol inhibited the rate of reduction by about 60–70%;
Mitoquinone/ol may be picking up and donating electrons directly from the active sites of the respiratory complexes, or it could be equilibrating with the endogenous mitochondrial ubiquinone pool. To address this question the endogenous ubiquinone pool was removed from beef heart mitochondria by pentane extraction.

Data set [3] deals with rat liver mitochondria. As to the kind of experiment: Reduction of mitoquinone by intact mitochondria (A275). The class given is biochemical. The procedure:
Rat liver mitochondria (100 μg/ml) were incubated in 120 mM KCl, 10 mM HEPES, 1 mM EGTA, pH 7.2 at 20° C. and A275 monitored. In panel A rotenone and succinate (5 mM) were present and mitoquinone (50 μM) was added where indicated. This experiment was repeated in the presence of malonate (20 mM) or FCCP ([…]). In panel B glutamate and malate (5 mM of each) were present from the start and mitoquinone (50 μM) was added where indicated. This experiment was repeated in the presence of FCCP or with rotenone and FCCP.

The next data set deals with ferricytochrome c (Homo sapiens, UniProt P99999). Briefly: Reactions of mitoquinone in the absence of mitochondrial membranes. The class given is biochemical. The procedure: FIGS. […] In panel A rotenone and antimycin were present and for the t=0 scan, then succinate (5 mM) was added and scans repeated at 5 minute intervals as indicated. In panel B A275 was monitored in the presence of rotenone and antimycin and then mitoquinone (50 μM) was added, followed by succinate (5 mM) and malonate (20 mM) where indicated. In Panel C rotenone, ferricytochrome c (50 μM) and malonate (20 mM) were present, A275 was monitored and mitoquinol (50 μM) and myxathiazol (10 μM) were added where indicated. In panel D A550 was monitored and the experiment in Panel C was repeated in the presence of KCN. Addition of myxathiazol inhabited this rate by about 60–70%.

For data set [4], the system named is rat liver mitochondria. Briefly: Toxicity of mitoquinol to isolated mitochondria (membrane potential, respiration rate). The procedure:
In A rat liver mitochondria energised with succinate were incubated with various concentrations of mitoquinol and the membrane potential determined as a percentage of control incubations. In B the respiration rate of succinate energised mitochondria under state 4 (black), state 3 (white) and uncoupled (stippled) conditions, as a percentage of control incubations.
The next assays were to determine the toxicity of these compounds to mitochondria and cells. To determine the toxicity to isolated mitochondria the effect on membrane potential and respiration rate were measured (FIG. 16).

Data set [5] addresses T2, beef heart mitochondrial membranes, Complex III (Bos taurus, UniProt P00157+P13272).
T2 construct: from tissue; host or cells: beef heart mitochondrial membranes
As to the kind of experiment: Oxidation of mitoquinol by beef heart mitochondrial membranes (Complex III) and reduction of cytochrome c. The class given is biochemical.

Data set [6] can be described thus: Stability of the quinol form in air. The class given is physicochemical. The procedure:
The quinone was reduced to the quinol by taking a mixture of crude quinone and quinol (73 mg, ca. 3:1 by 1H NMR) in methanol (1 mL) was added NaBH4 (21 mg, 0.55 mmol). The mixture was stirred slowly under an argon atmosphere for 10 min. Excess NABH4 was quenched with 5% HBr (0.2 mL) and the mixture extracted with CH2Cl2. The organic extract was washed with H2O (3×5 mL). Solvent was removed under reduced pressure, giving a mixture of quinone and quinol (ca 1:5 by ^1H NMR) as a pale yellow solid (55 mg). For routine preparation of the quinol form the ethanolic solution, dissolve in 5 vols of water, (=1 ml) add a pinch of NaBH4 leave on ice in the dark for 5 min, then extract 3×0.5 ml dichloromethane, Wash with water/HCl etc blow off in nitrogen, dissolve in same vol of etoh and take spectrum and store at −80 under argon. Yield about 70–80%. […] Collect the upper organic phase and evaporate to dryness under a stream of N2 and dissolve in 1 ml ethanol acidified to pH 2.

The test system of data set [7] is rat liver mitochondria. As to the kind of experiment: Uptake of radiolabelled mitoquinol by energised mitochondria. Type of data set: in vitro ADME. Particulars: tritiated compound, reversed by FCCP. The method, then: The next step was to see if mitoquinol was accumulated by energised mitochondria. To do this a tritiated version of the compound was made, incubated with energised mitochondria and the amount taken up into the mitochondria determined.

The subject of a further data set is rat brain homogenates. As to the kind of experiment: Inhibition of lipid peroxidation in rat brain homogenates (TBARS assay). The class given is biochemical. The procedure:
The rat brain homogenates were incubated with or without various concentrations of the test compounds (compound 1; native Vitamin E (α-tocopherol), bromobutyl triphenylphosphonium bromide, Trolox (a water soluble form of Vitamin E) and compound 2, ie2-(2-bromoethyl)-3,4-dihydro-2,5,7,8-tetramethyl-2H-1-benzopyran-6-ol, the precursor of compound 1 (“Brom Vit E”)) and the oxidative damage occurring over the incubation was quantitated using the TBARS assay (Stocks et al., 1974, Clin Sci Mol Med 47,215–222). From this the concentration of compound required to inhibit oxidative damage by 50% was determined. In this system 210 nM compound 1 inhibited oxidative stress by 50% while the corresponding value for native Vitamin E was 36 nM. The value for bromobutyltriphenylphosphonium bromide, which contains the triphenylphosphonium moiety but not the antioxidant Vitamin E moiety was 47 μM. […] Further details of the experimental procedures and results are set out below.
(§1) The IC50 values for inhibition of lipid peroxidation were determined in rat brain homogenates, and are means±SEM or range of determinations on 2–3 brain preparations. Octan-1-ol/PBS partition coefficients are means±SEM for three independent determinations. N.D. not determined. Partition coefficients were determined by mixing 200 μM of the compound in 2 ml water-saturated octanol-1-ol with 2 ml octanol-saturated-PBS at room temperature for 1 h, then the two layers were separated by brief centrifugation and their concentrations determined spectrophotometrically from standard curves prepared in PBS or octanol. To measure antioxidant efficacy four rat brains were homogenised in 15 ml 40 mM potassium phosphate (pH 7.4), 140 mM NaCl at 4° C., particulate matter was pelleted (1,000×g at 4° C. for 15 min) and washed once and the combined supernatants stored frozen. Aliquots were rapidly thawed and 5 mg protein suspended in 800 μl PBS containing antioxidant or ethanol carrier and incubated at 37° C. for 30 min. Thiobarbituric acid reactive species (TBARS) were quantitated at 532 nm by adding 200 μl conc. HClO4 and 200 μl 1% thiobarbituric acid to the incubation, heating at 100° C. for 15 min and then cooling and clarification by centrifugation (10,000×g for 2 min).

Data set [8] can be described thus: Octan-1-ol/PBS partition coefficient. The settings on record: 200 μM, room temperature, 1 h, means±SEM of three. Type of data set: physicochemical. The procedure: as §1
The test system of data set [9] is rat liver mitochondria.
Setting [10] is: means±SEM or range, 2–3 brain preparations, read-out: IC50 for inhibition of lipid peroxidation.
The mark [11] stands for this setting: TBARS, read-out: concentration that inhibited oxidative stress by 50%.

Like-named read-outs stand apart in the source and are kept apart here.

T1 sequence (P35720 30-169): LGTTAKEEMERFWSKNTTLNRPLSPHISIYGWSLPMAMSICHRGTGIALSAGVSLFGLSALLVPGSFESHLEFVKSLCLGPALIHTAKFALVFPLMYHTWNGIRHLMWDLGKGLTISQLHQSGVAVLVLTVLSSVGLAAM
T1 sequence (Q95123 56-158): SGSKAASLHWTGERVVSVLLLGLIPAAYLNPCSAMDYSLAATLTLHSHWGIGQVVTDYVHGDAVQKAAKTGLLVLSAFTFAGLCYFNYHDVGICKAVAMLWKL
T1 sequence (Q3T189 29-280): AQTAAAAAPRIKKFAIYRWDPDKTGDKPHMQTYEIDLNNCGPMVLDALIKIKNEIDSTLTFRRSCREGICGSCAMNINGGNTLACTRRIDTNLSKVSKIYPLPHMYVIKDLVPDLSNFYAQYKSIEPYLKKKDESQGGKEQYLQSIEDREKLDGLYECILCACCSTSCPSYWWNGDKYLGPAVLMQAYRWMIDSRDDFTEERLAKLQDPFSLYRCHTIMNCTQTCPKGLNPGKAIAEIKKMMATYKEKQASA
T1 sequence (P31039 44-665 partner): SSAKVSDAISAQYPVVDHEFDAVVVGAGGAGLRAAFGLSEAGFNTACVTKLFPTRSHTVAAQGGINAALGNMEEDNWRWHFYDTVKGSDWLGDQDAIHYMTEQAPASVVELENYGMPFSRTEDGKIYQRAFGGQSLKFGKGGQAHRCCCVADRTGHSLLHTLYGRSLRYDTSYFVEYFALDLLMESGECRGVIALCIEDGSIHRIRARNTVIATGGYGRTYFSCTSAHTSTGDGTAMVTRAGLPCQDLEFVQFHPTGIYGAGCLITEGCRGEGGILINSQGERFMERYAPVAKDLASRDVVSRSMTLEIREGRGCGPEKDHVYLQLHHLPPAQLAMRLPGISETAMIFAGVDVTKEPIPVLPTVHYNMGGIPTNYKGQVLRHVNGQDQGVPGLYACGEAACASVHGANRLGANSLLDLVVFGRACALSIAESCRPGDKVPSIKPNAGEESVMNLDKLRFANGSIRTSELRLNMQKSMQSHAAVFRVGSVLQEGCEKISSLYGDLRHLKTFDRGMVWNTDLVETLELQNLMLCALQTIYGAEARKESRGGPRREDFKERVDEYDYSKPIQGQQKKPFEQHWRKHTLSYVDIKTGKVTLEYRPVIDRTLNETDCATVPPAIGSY
Chain of ferricytochrome c (P99999 whole entry): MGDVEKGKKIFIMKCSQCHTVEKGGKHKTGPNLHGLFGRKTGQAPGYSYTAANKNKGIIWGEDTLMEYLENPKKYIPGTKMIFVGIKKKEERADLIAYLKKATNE

On to `COC1=C(OC)C(=O)C(CCCCCCCCCC[P+](c2ccccc2)(c2ccccc2)c2ccccc2)=C(C)C1=O` [mitoquinone, 10-(6′-ubiquinonyl)decyltriphenylphosphonium bromide], for which the “proportion reduced by succinate” value in data set [1] (antimycin inhibited beef heart membranes, succinate 5 mM) was “about 23%”. Besides, in data set [1] (equilibration with succinate/fumarate couple), the “Eh corresponding to proportion reduced” value is “about +8 mV”. In addition, the “rate of reduction of mitoquinone” value in [1] (rotenone inhibited membranes, succinate) stood at 51±9.9 nmol/min/mg protein. The “restoration of NADH oxidation” value in [2] was “restored NADH oxidation”. Further, the “inhibition of NADH-ferricytochrome c activity by myxathiazol” value in data set [2] (pentane extracted mitochondria, mitoquinone 50 μM) was 60–70%. Moreover, the “reduction by intact energised mitochondria” value in the data set with rat liver mitochondria [3] (rat liver mitochondria, 50 μM) was “rapidly reduced”. In addition, the “decrease of rate of reduction with FCCP” value with rat liver mitochondria [3] (uncoupler FCCP present) is 2–3 fold. Also, on ferricytochrome c (50 μM, A550), the “reaction on mixing with 50 μM ferricytochrome c” value is given as “some reduction of A550”. In addition, the “reaction with succinate or NADH in the absence of mitochondrial membranes” value at ferricytochrome c (no membranes) is “no reaction”.

As for `COc1c(O)c(C)c(CCCCCCCCCC[P+](c2ccccc2)(c2ccccc2)c2ccccc2)c(O)c1OC` [mitoquinol, 10-(6′-ubiquinolyl)decyltriphenylphosphonium bromide], the “effect on mitochondrial function” value was “little effect on mitochondrial function” in the data set with rat liver mitochondria [4] (10 μM); “some uncoupling and inhibition of respiration” in the data set on rat liver mitochondria [4] (25 μM and above). Moreover, in data set [5] (FIG. 12 panel D, KCN present, myxathiazol 10 μM), the “inhibition of rate by myxathiazol” value is on record as 60–70%. The “initial rate of oxidation of mitoquinol” value in [5] (membranes inhibited with rotenone and malonate, mean of 2 +/- range) is listed as “about 89±9 mmol mitoquinol/min/mg protein”. For the same molecule, the “initial rate of reduction of cytochrome c on addition of mitoquinol” value in data set [5] (membranes supplemented with ferricytochrome c, mean+/-range) is recorded as “about 93+/−13 nmol/min/mg”. Also, in [5] (myxathiazol), the “cytochrome c reduction not blocked by myxathiazol” value was 30–40%. For the same molecule, the stability in air entry in data set [6] is listed as “Oxidises rapidly in air”. The “accumulation by energised mitochondria” value in the data set with rat liver mitochondria [7] is “accumulated rapidly”.

For `Cc1c(C)c2c(c(C)c1O)CCC(C)(C(=O)O)O2` (stereo not drawn) [Trolox], the IC50 in the data set on rat brain homogenates (setting [10]) worked out at 18.5 ± 5.9 µM.

Turning to `Cc1c(C)c2c(c(C)c1O)CCC(C)(CCBr)O2` (stereo not drawn) [Bromo Vit E, 2-(2-bromoethyl)-3,4-dihydro-6-hydroxy-2,5,7,8-tetramethyl-2H-1-benzopyran], the “Octanol:PBS partition coefficient” value in [8] was 33.1 ± 4.4. In the data set with rat brain homogenates (setting [10]), the IC50 was 0.045 ± 0.026 µM.

With `COC1=C(OC)C(=O)C(CC=C(C)C)=C(C)C1=O` [ubiquinone-1, reference compound], the “restoration of NADH oxidation” value in data set [2] was “partially restored”.

In the case of `C[P+](c1ccccc1)(c1ccccc1)c1ccccc1` [TPMP, methyltriphenylphosphonium, reference compound], the “proportion membrane-bound within mitochondria” value in the data set on rat liver mitochondria [9] is “About 60%”. The “change in A275” value in the data set with rat liver mitochondria [3] (50 μM added instead of mitoquinone) is reported as “did not lead to changes in A275”.

As for `BrCCCC[P+](c1ccccc1)(c1ccccc1)c1ccccc1.[Br-]` [BrBTP, bromobutyltriphenylphosphonium bromide], the “Octanol:PBS partition coefficient” value in [8] stood at 3.83 ± 0.22. For the same molecule, the IC50 with rat brain homogenates (setting [11]) came out at 47 µM.

Consider `Cc1c(C)c2c(c(C)c1O)CC[C@@](C)(CCC[C@H](C)CCC[C@H](C)CCCC(C)C)O2` [α-Tocopherol, α-tocopherol], for which the “Octanol:PBS partition coefficient” value in data set [8] turned out to be 27.4 ± 1.0. Besides, the IC50 in the data set on rat brain homogenates (setting [11]) amounted to 0.036 µM.

For the origin of these results see US7232809B2, “Mitochondrially targeted antioxidants” (Antipodean Pharmaceuticals, Inc., priority 1997, dated 2007).
